Assays:
uncapsulated lactase = assay: Assay for the activity of uncapsulated lactase after ozone treatment (ONPG, absorbance at 420 nm); format: biochemical; settings: initial activity 100%
Protocol: After centrifuging the dispersion fluid of microcapsules prepared by ozone treatment in Examples 2 to 4 at 24,900×g for 10 min, the resulting supernatants were assayed for activity of uncapsulated lactase.
A portion of each of the supernatants was primarily filtered using Whatman No. 540 (Whatman International Ltd., Maidstone, England), and then further filtered using an 1 μm membrane filter (Whatman International Ltd., Maidstone, England).
Thereafter, 0.5 ml of the filtered supernatant was mixed with 2 ml of a solution of 0.05 M ONPG (Ortho-nitrophenol-β-D-galactopyranoside, Sigma Chemical Co., St. Louis, Mo. USA) preheated at 37° C. for 15 min, followed by incubation for 20 min at 37° C. After 20 min, the reaction was terminated with adding 0.5 ml of a 0.5 M Na2CO3 solution (Shinoyo Pure Chemical Co., Ltd., Osaka, Japan) thereto.
Absorbance at 420 nm was measured using a spectrophotometer (Beckman Du 650 spectrophotometer; Beckman Instrument, Inc, Fullerton, Calif., USA), and the results are given in FIG. 2.

[1] = test system: microencapsulated lactase; assay: Effect of ozone treatment on the activity of microencapsulated lactase (heating method, ONPG); format: biochemical; settings: initial activity 100%
Protocol: With an aim to investigate effect of ozone treatment on microencapsulated lactase, microcapsules containing lactase were collected from the ozone-treated dispersion fluid prepared in Examples 2 to 4 by centrifugation, and the activity of microencapsulated lactase was measured using a heating method among yield analysis methods disclosed in Korean Pat. No. 88465.
0.5 ml of the resulting dispersion fluid containing microcapsules was mixed with 2 ml of 0.05 M ONPG pre-heated at 50° C. for 10 min. After 5 min, the reaction was terminated with adding 0.5 ml of 0.5M Na2CO3 thereto, and absorbance at 420 nm was measured using a spectrophotometer (Beckman Du 650 spectrophotometer, Beckman Instrument, Inc., Fullerton, Calif., USA). The results are given in FIG. 3, where the initial activity of lactase is 100%.
Yield of microcapsule=1−Activity of uncapsulated lactase/ Initial activity of lactase×100

Bacillus subtilis = assay: Effect of ozone treatment on growth of microorganisms (colony count); format: cell-based; settings: ozone 10 ppm, 2° C.; for viability: 0 min = 100
Protocol: (§1) Microorganisms were treated with ozone of 10 ppm, at which concentration much of untrapped lactase loses its activity, while microencapsulated lactase retains effective activity, and effect of ozone on the growth of microorganisms was investigated.
(§2) Pathogenic microorganisms found especially in food, including Escherichia coli, Bacillus subtilis, Staphylococcus aureus, Salmonella typhimurium, Pseudomonas aeruginosa, and Enterobacter aerogenes, were obtained from Korean Culture Center of Microorganisms (Seoul, Korea) and stored in broth containing 50% glycerol at −70° C. until use. The five strains, except S. aureus, were cultured in nutrient broth (NB), and S. aureus was cultured in tryptic soy broth (TSB) for 24 hours at 37° C.
(§3) Trace amounts of the cultured microorganisms were mixed with the dispersion fluid of microcapsules, followed by treatment of ozone of 10 ppm at 2° C. under a flow rate of 10 L/min using an ozone generator.
(§4) After being serially diluted, the ozone-treated microorganisms were plated onto nutrient agar broth.

Enterobacter aerogenes = assay: as above; format: cell-based; settings: ozone 10 ppm, 2° C.; for viability: 0 min = 100
Protocol: as §1, §2, §3, §4

Escherichia coli = assay: as above; format: cell-based; settings: ozone 10 ppm, 2° C.; for viability: 0 min = 100
Protocol: as §1, §2, §3, §4

Pseudomonas aeruginosa = assay: as above; format: cell-based; settings: ozone 10 ppm, 2° C.; for viability: 0 min = 100
Protocol: as §1, §2, §3, §4

Salmonella typhimurium = assay: as above; format: cell-based; settings: ozone 10 ppm, 2° C.; for viability: 0 min = 100
Protocol: as §1, §2, §3, §4

Staphylococcus aureus = assay: as above; format: cell-based; settings: ozone 10 ppm, 2° C.; for viability: 0 min = 100
Protocol: as §1, §2, §3, §4

## O=[O+][O-] [ozone]
Uncapsulated lactase; 1 ppm of ozone, 1 min
  activity of lactase (uncapsulated): about 94.3%
Uncapsulated lactase; 1 ppm of ozone, 5 min
  activity of lactase (uncapsulated): 56.4%
Uncapsulated lactase; 1 ppm of ozone, 10 min
  activity of lactase (uncapsulated): 26.5%
Uncapsulated lactase; 5 ppm of ozone, 1 min
  activity of lactase (uncapsulated): 82%
Uncapsulated lactase; 5 ppm of ozone, 5 min
  activity of lactase (uncapsulated): 42.8%
Uncapsulated lactase; 5 ppm of ozone, 10 min
  activity of lactase (uncapsulated): 20%
Uncapsulated lactase; 10 ppm of ozone, 1 min
  activity of lactase (uncapsulated): 57.8%
Uncapsulated lactase; 10 ppm of ozone, 5 min
  activity of lactase (uncapsulated): 32.8%
Uncapsulated lactase; 10 ppm of ozone, 10 min
  activity of lactase (uncapsulated): 9.7%
[1]; 1 ppm of ozone, 1 min
  activity of lactase entrapped into microcapsules: about 97%
[1]; 1 ppm of ozone, 5 min
  activity of lactase entrapped into microcapsules: 91%
[1]; 1 ppm of ozone, 10 min
  activity of lactase entrapped into microcapsules: 74%
[1]; 5 ppm of ozone, 1 min
  activity of lactase entrapped into microcapsules: 96%
[1]; 5 ppm of ozone, 5 min
  activity of lactase entrapped into microcapsules: 82%
[1]; 5 ppm of ozone, 10 min
  activity of lactase entrapped into microcapsules: 67%
[1]; 10 ppm of ozone, 1 min
  activity of lactase entrapped into microcapsules: 93%
[1]; 10 ppm of ozone, 5 min
  activity of lactase entrapped into microcapsules: 79%
[1]; 10 ppm of ozone, 10 min
  activity of lactase entrapped into microcapsules: 65%
Bacillus subtilis; treatment time 0.5 min
  colonies counted: 9.6 × 10^7 CFU/ml
  viability: 60%
Bacillus subtilis; treatment time 1 min
  colonies counted: 2.2 × 10^7 CFU/ml
  viability: (14) %
Bacillus subtilis; treatment time 5 min
  colonies counted: 6.0 × 10^6 CFU/ml
  viability: (3.7) %
Bacillus subtilis; treatment time 10 min
  colonies counted: 0 CFU/ml
  viability: (0) %
Enterobacter aerogenes; treatment time 0.5 min
  colonies counted: 5.4 × 10^6 CFU/ml
  viability: 38%
Enterobacter aerogenes; treatment time 1 min
  colonies counted: 1.0 × 10^6 CFU/ml
  viability: (7.1) %
Enterobacter aerogenes; treatment time 5 min
  colonies counted: 2.4 × 10^5 CFU/ml
  viability: (1.7) %
Enterobacter aerogenes; treatment time 10 min
  colonies counted: 0 CFU/ml
  viability: (0) %
Escherichia coli; treatment time 0.5 min
  colonies counted: 8.9 × 10^7 CFU/ml
  viability: 3.7%
Escherichia coli; treatment time 1 min
  colonies counted: 3.1 × 10^7 CFU/ml
  viability: (1.3) %
Escherichia coli; treatment time 5 min
  colonies counted: 9.0 × 10^6 CFU/ml
  viability: (0.3) %
Escherichia coli; treatment time 10 min
  colonies counted: 0 CFU/ml
  viability: (0) %
Pseudomonas aeruginosa; treatment time 0.5 min
  colonies counted: 1.2 × 10^8 CFU/ml
  viability: (35) %
Pseudomonas aeruginosa; treatment time 1 min
  colonies counted: 7.5 × 10^7 CFU/ml
  viability: 22%
Pseudomonas aeruginosa; treatment time 5 min
  colonies counted: 3.6 × 10^6 CFU/ml
  viability: 1%
Pseudomonas aeruginosa; treatment time 10 min
  colonies counted: 0 CFU/ml
  viability: (0) %
Salmonella typhimurium; treatment time 0.5 min
  colonies counted: 8.4 × 10^8 CFU/ml
  viability: 34%
Salmonella typhimurium; treatment time 1 min
  colonies counted: 1.1 × 10^7 CFU/ml
  viability: 0.4%
Salmonella typhimurium; treatment time 5 min
  colonies counted: 1.5 × 10^6 CFU/ml
  viability: (0.06) %
Salmonella typhimurium; treatment time 10 min
  colonies counted: 0 CFU/ml
  viability: (0) %
Staphylococcus aureus; treatment time 0.5 min
  colonies counted: 1.0 × 10^8 CFU/ml
  viability: (15) %
Staphylococcus aureus; treatment time 1 min
  colonies counted: 6.4 × 10^7 CFU/ml
  viability: (9.4) %
Staphylococcus aureus; treatment time 5 min
  colonies counted: 1.2 × 10^7 CFU/ml
  viability: (1.8) %
Staphylococcus aureus; treatment time 10 min
  colonies counted: 1.1 × 10^5 CFU/ml
  viability: (0.01) %

Reference: patent US20030148483A1, “Method of removing residual enzymes in enzyme microencapsulation” (priority 2002, published 2003)
